We go through 2 molecules from US20250359576A1, “THEANINE-CONTAINING COMPOSITION” (TAIYO KAGAKU Co., Ltd., priority 2024, published 2025).

The structures appear in SMILES notation.

Experiment [1] concerns panelists. Put plainly: Test Example 3: sensory evaluation of unpleasant taste (off-flavor) at high concentrations, upper limit. It counts as in vivo. To be noted: six panelists. As for the experimental part:
Solutions containing theanine (Taiyo Kagaku Co., Ltd.: Suntheanine (registered trademark) U001) were prepared to contain 0 (control), 100, 500, 1000, 5000, and 10000 ppm of organic nitrogen compound A or C.
More specifically, 1996 mL of deionized water was added to 4 g of theanine, to prepare the theanine control solution (2 mg/mL theanine solution). 10000 ppm organic nitrogen compound solutions were prepared by adding […] of theanine control solution to 10 g of each organic nitrogen compound A and C.
150 mL of theanine control solution was added to 150 mL of each of the 10000 ppm organic nitrogen compound solutions to prepare 5000 ppm organic nitrogen compound solutions.
180 mL of theanine control solution was added to 20 mL of each of 10000 ppm organic nitrogen compound solutions to prepare 1000 ppm organic nitrogen compound solutions.
180 mL of theanine control solution was added to 20 mL of each of the 5000 ppm organic nitrogen compound solutions to prepare 500 ppm organic nitrogen compound solutions.
180 mL of theanine control solution was added to 20 mL of each of the 1000 ppm organic nitrogen compound solutions to prepare 100 ppm organic nitrogen compound solutions.
Similar solutions were also prepared for organic nitrogen compound C.
A sensory (taste) evaluation was conducted by six panelists. The evaluation category was unpleasant taste, which was considered to be an off-flavor.

In experiment [2] the test system is panelists. Kind of experiment: Test Example 4: three-point discrimination sensory evaluation of organic nitrogen compound alone without theanine. It counts as in vivo. To be noted: compound alone in deionized water without theanine; 5 ppm test solution; eight panelists; binomial test, p<0.10. As for the experimental part: Organic nitrogen compound B was added to deionized water (i.e. not containing theanine) to prepare solutions containing 0 (control), 5, 50, and 100 ppm of organic nitrogen compound B.
In other words, […] of organic nitrogen compound B was dissolved in 1000 mL of deionized water (control) to make a 100 ppm solution. 150 mL of deionized water was added to 150 mL of the 100 ppm organic nitrogen compound B solution to make a 50 ppm organic nitrogen compound B solution.
20 mL of the 50 ppm organic nitrogen compound B solution was mixed with 180 mL of deionized water to make a 5 ppm organic nitrogen compound B solution.
A three-point discrimination sensory evaluation was conducted by eight panelists. Bitterness was used as the evaluation category. […] The panelists were asked to select solution(s) that they felt was (were) bitter. Analysis was performed using a binomial test. In the statistical analysis, a significance level of 10% (p<0.10) was used as the threshold for statistical significance.

As for `CC(N)=O` [organic nitrogen compound C, acetamide], the entries for the “panelists who noticed an unpleasant taste” value in the experiment with panelists [1] (100-500 ppm in 2 mg/mL theanine solution), in the experiment with panelists [1] (1000-5000 ppm in 2 mg/mL theanine solution) and in the experiment with panelists [1] (10000 ppm in 2 mg/mL theanine solution) were “one of six panelists”, “two of six panelists” and “all panelists”, respectively.

Regarding `CCNC=O` [organic nitrogen compound B, ethylformamide], in the experiment with panelists [2], the “bitterness, three-point discrimination vs deionized water” value is listed as “no significant difference”.
